Experimental data taken from US6774254B2, “Gold complexes” (National University of Singapore, priority 2000, dated 2004).

What was measured:
[1] = tested on: P3HR-1 (B-cell lymphoma); assay: human suspension tumor cell line assay, P3HR-1; type: cell-based; conditions: 2 h exposure, cells counted after 5 days; read-out: cytotoxicity IC50, P3HR-1
Protocol: (§1) The human suspension tumor cell line assay determines the ability of a compound to inhibit the cells' ability to divide in vitro after a two hour exposure to the compound. The panel of human suspension tumor cell lines consist of Raji (B-cell lymphoma), Daudi (B-cell lymphoma), P3HR-1(B-cell lymphoma), and Molt-4 (T-cell leukemia). The cytotoxicity tests were carried out in vitro according to the following protocol:
(§2) Cryopreserved tumor cells were thawed and cultured in the media RPMI-1640 supplemented with 10% fetal calf serum (FCS) and 100 units/mL penicillin and 100 μg/mL streptomycin (“media R10”), in a 5% CO2 humidified incubator at 37° C. They were subcultured every three days in a 75 cm^2 tissue culture flask.
(§3) A hemocytometer with four 1×1×0.1 mm^3 cells was used to count the cell concentration of a specified cell suspension solution. Trypan Blue was used to determine the viability of the counted cells, as live cells can exclude the dye penetration.
(§4) Each of Raji, Daudi, P3HR-1 and Molt-4 cells were dispensed into 6-well petri plates with 30,000 cells per well and were labelled in groups of three. A drug solution with a specified concentration was freshly prepared by dilution of a gold complex solution (1 mM) in DMSO with the media R10. […] The number of cells in each well was counted and the average value of triplicate samples were determined for each drug concentration.

[2] = tested on: K36 lymphoma; assay: secondary in vivo evaluation, K36 lymphoma at three dosage levels; parameters: species or system AKR mice
Protocol: (§5) The in vivo anti-tumor activities of the phosphino-gold(I) compounds were evaluated using a murine tumor model, K36 lymphoma (T-cell lymphoma), inoculated subcutaneously into the AKR inbred mice. K36 lymphoma is a transformed cell line which originated from the AKR mice infected with murine leukemic retrovirus. The K36 lymphoma cells are naturally tumorigenic in syngenic AKR mice and is non-immunogenic to the host mice. The in vivo tests were carried out according to the following protocol:
The mice were then randomly distributed into control and treatment groups with 5 mice/group.
Day 1-7: The desired dose of a test agent was dissolved in a minimum amount (<50 μL) of dimethylacetamide (DMA), followed by addition of Cremaphor_EL (polyethoxylated castor oil, <30 μL) with mixing. Saline was added to dilute the drug solution and the desired dose was delivered in a volume of 5×0.3 mL for one group of mice (5 mice per group). […] Formulation of a test agent was carried out just before injection into the animals.
(§6) Day 8-11: Tumor weights were estimated from two-dimensional measurement, following the formula:
(§7) Tumor weight (in mg)=(a×b^2)/2,
(§8) wherein a and b are tumor length and width (in mm), respectively. The usual T/C value was used to assess the in vivo anti-tumor activity. T refers to the total tumor weight of the treatment group (including zeros), whereas, C refers to the total tumor weight of the non-treatment control group (including zeros).
In addition, three dose levels of 0.67 decrements were used in the secondary in vivo evaluation studies of (Sp)-1 and (Rp)-1 against the K36 lymphoma. The purpose of testing at multiple dosage levels is to exclude agents with exceptionally steep dose-response curves, where only the most tolerated dose is active.

[3] = tested on: Molt-4 (T-cell leukemia); assay: human suspension tumor cell line assay, Molt-4; type: cell-based; conditions: 2 h exposure, cells counted after 5 days; read-out: cytotoxicity IC50, Molt-4
Protocol: as §1, §2, §3, §4

[4] = tested on: Raji (B-cell lymphoma); assay: human suspension tumor cell line assay, Raji; type: cell-based; conditions: 2 h exposure, cells counted after 5 days; read-out: cytotoxicity IC50, Raji
Protocol: as §1, §2, §3, §4

[5] = tested on: K36 lymphoma (T-cell lymphoma); assay: in vivo anti-tumor activity, K36 lymphoma in AKR mice (primary screen); conditions: at MTTD, i.p. Day 1-7, tumor weights Day 8-11
Protocol: as §5
Day 0: K36 lymphoma cells were washed with phosphate-buffered saline (PBS) for three times and suspended in RPMI 1640 medium at the concentration of 10×10^6 cells/mL 10^6 cells in 0.1 mL of the medium were implanted subcutaneously into each of the two flanks of inbred AKR mice with a ½-in, 28-gauge, 1-mL syringe. The mice were then randomly distributed into control and treatment groups with 5 mice/group.
Day 1-7: The desired dose of a test agent was dissolved in a minimum amount (<50 μL) of dimethylacetamide (DMA), followed by addition of Cremaphor_EL (polyethoxylated castor oil, <30 μL) with mixing. Saline was added to dilute the drug solution and the desired dose was delivered in a volume of 5×0.3 mL for one group of mice (5 mice per group). In this case, the final concentration of dimethylacetamide was less than 3.3% and that of the carrier less than 2%. Formulation of a test agent was carried out just before injection into the animals. The test agent was injected intraperitoneally into the treatment groups of mice twice a day following the flexible schedule as recommended in the literature (Corbett, T. H.; Valeriote, F. A; LoRusso, P.; Polin, L; et. al. In “Anticancer Drug Development Guide: Preclinical Screening, Clinical Trials, and Approval”, (Ed. Teicher, B. A.), Humana Press Inc., Totowa, N.J., 1997 p 75-99.) to reach the most tolerated drug dose.
as §6, §7
as §8, with “zeros). According to the NCI (National Cancer Institute in USA) standard, a T/C value of 42% is considered significant anti-tumor activity.” for “zeros).”
Furthermore, two compounds cisplatin (cis-diaminedichloroplatinum(II)) and [Au(dppe)2]Cl (dppe: 1,2-bis(diphenylphosphino)ethane) with known anti-tumor activities were also included in the In vivo test Table 2 summarizes the anti-tumor activities of (Sp)-1 and (Rp)-1.

[6] = tested on: Mahlavu (liver cancer); assay: cytotoxicity against human adherent tumor cell line Mahlavu; type: cell-based; conditions: four hours exposure, cells counted after 5 days
Protocol: In addition, cytotoxicities of (Sp)-1 and (Rp)-1 against a human adherent tumor cell line, Mahlavu (liver cancer), were also evaluated according to the following protocol:
Cryopreserved Mahlavu cells were thawed and cultured as a monolayer in the media M10 (Dulbecco's modified eagle's medium supplemented with 10% FCS and 100 units/mL penicillin and 100 μg/mL streptomycin) in a 75 cm^2 tissue culture flask. The flask was kept in a 5% CO2 humidified incubator at 37° C. Since the cells attached strongly to the bottom of culture flask, trypsin solution in PBS was used to detach the cells and then the Mahlavu cells were washed and counted as suspension cells.
10,000 cells were placed into each well of 6-well petri plates and incubated overnight to allow attachment to the plate. Triplicate samples of cells were allowed to react with the gold(I) complexes at three concentrations for four hours, followed by removal of the media. As before, a control with no drug treatment was included. The plates were then washed once with PBS(5 mL) and fresh media M10 (3 mL) was added. The plates were incubated at 37° C. in a CO2 incubator for 5 days. The Mahlavu cells In each well were trypsinized and counted as usual.
The IC50 values of (Sp)-I and (Rp)-I against this adherent tumor cell line were 6 and 8 μM, respectively. The IC50 values were determined as described above.

[7] = tested on: Daudi (B-cell lymphoma); assay: human suspension tumor cell line assay, Daudi; type: cell-based; conditions: 2 h exposure, cells counted after 5 days; read-out: cytotoxicity IC50, Daudi
Protocol: as §1, §2, §3, §4

[8] = tested on: advanced K36 lymphoma; assay: advanced K36 lymphoma model, treatment from Day 7; type: in vivo, AKR mice; conditions: for average ILS % (Increased Life Span): control average life span 21 days after tumour implantation; for anti-tumor activity against advanced K36 tumor model in words (FIG. 1): treatment from Day 7, i.p. twice a day; for MTTD in advanced K36 model: treatment from Day 7, up to 4 days
Protocol: On Day 0, AKR mice were injected with K36 lymphoma cells. On Day 7, mice were divided into control and treatment groups. Treatment groups were injected intraperitoneally with either cisplatin, (Sp)-1, or (Rp)-1. Control groups were […] treated with any of the above compounds. On each subsequent day, the 3 treatment groups were injected with the respective compounds twice a day. Tumor weights were estimated from two-dimensional measurements on each day.
The anti-tumor activities of (Sp)- and (Rp)-I were also assessed against advanced K36 lymphoma model. Also, the active positive control, cisplatin, was included in the evaluation.
The protocol design for this test was similar as described above except that drug administrations began on Day 7 (Day 0 is the date of implantation). At this stage, the tumor sizes on mice averaged around 9×8 mm and the estimated average tumor weight was about 300 mg. Due to the extremely fast growth of the K36 lymphoma (the double time is around 1 day), there was limited time (up to 4 days) to escalate the drug dosage to the most tolerated level, before the tumor became too big to give a positive response to any drug treatment.
The results are visualised in FIG. 1. […] They can markedly retard the tumor growth during the period of drug treatment and even after treatment. The average ILS % (Increased Life Span) of (Sp)-I and (Rp)-I was 48% and 31%, respectively (the average life span of the control group was 21 days after tumour implantation). Particularly, one mouse treated with (Sp)-I survived for 48 days after tumour implantation.

[9] = dose levels of 54 and 36 μmol/kg

| Compound | IC50 [1] | T/C ([2]; dosage 24 μmol/kg) | T/C ([2]; dosage 36 μmol/kg) | T/C ([2]; dosage 54 μmol/kg) | in vivo activity in words ([2]; dosage level of 24 μmol/kg) | in vivo activity in words [2, 9] | IC50 [3] | IC50 [4] | T/C (tumor weight treated/control x 100) [5] | IC50 [6] | IC50 [7] | average ILS % (Increased Life Span) [8] | anti-tumor activity against advanced K36 tumor model in words (FIG. 1) [8] | MTTD in advanced K36 model [8] | survival of one treated mouse after tumour implantation ([8]; one mouse) |
| --- | --- | --- | --- | --- | --- | --- | --- | --- | --- | --- | --- | --- | --- | --- | --- |
| CCOC(=O)C1C(P(c2ccccc2)c2ccccc2)C2C(C)=C(C)C1P2c1ccccc1.[Cl][Au].[Cl][Au] [(Rp)-I, μ-{(1α,4α,5α(S),6β(R),7R)-5-(diphenylphosphino)-2,3-dimethyl-6-(ethoxycarbonyl)-7-phenyl-7-phosphabicyclo[2.2.1]hept-2-ene-P5,P7}bis[chlorogold(I)]] | 200 nM | 38% | 14% | 6% | moderate activity | highly active | 1000 nM | 300 nM | 6% | 8 µM | 500 nM | 31% | significant anti-tumor activities | 32 µmol/kg | – |
| CCOC(=O)C1C(P(c2ccccc2)c2ccccc2)C2C(C)=C(C)C1P2c1ccccc1.[Cl][Au].[Cl][Au] [(Sp)-I, μ-{(1α,4α,5α(R),6β(S),7S)-5-(diphenylphosphino)-2,3-dimethyl-6-(ethoxycarbonyl)-7-phenyl-7-phosphabicyclo[2.2.1]hept-2-ene-P5,P7}bis[chlorogold(I)]] | 500 nM | 33% | 12% | 5% | moderate activity | highly active | 1000 nM | 500 nM | 5% | 6 µM | 800 nM | 48% | significant anti-tumor activities | 32 µmol/kg | 48 days |
| N.N.[Cl][Pt][Cl] [Cisplatin, cis-diaminedichloroplatinum(II), reference compound] | – | – | – | – | – | – | – | – | 6% | – | – | – | did not inhibit the growth of the advanced K36 lymphoma at all | 28 µmol/kg | – |
| [Au+].[Cl-].c1ccc(P(CCP(c2ccccc2)c2ccccc2)c2ccccc2)cc1.c1ccc(P(CCP(c2ccccc2)c2ccccc2)c2ccccc2)cc1 [[Au(dppe)2]Cl, reference compound] | – | – | – | – | – | – | – | – | 12% | – | – | – | – | – | – |
